Test results published in US20050004171A1, “Novel substituted benzimidazole dosage forms and method of using same” (priority 1996, published 2005).
“And” between values parts separate entries of the source, which are not always exact repeats. Equal entries are not always repeated. “Also recorded” adds a separate entry of the source. Where two headings read alike, the source gives them in different places.

Key:
[1] = cited from earlier work; for pH: amino acid; for Solubility: at 25° C.
[2] = cited from earlier work; for pH: pH is altered by concentration and temperature; for Solubility: solubility is altered by temperature
[3] = Calculation of Essential pH and Stability Range Factor (SRF); type: physicochemical; details: calculated from pKa; read-out: Stability Range Factor (SRF), pH range (pKa + 0.7) to 10.9
Description: A proton pump inhibitor dose within its calculated pHE range is designed to ensure sufficient proton pump inhibitor protection from acid degradation such that delivery to and action upon proton pumps occur. In one desirable embodiment, the pHE is the sum of the pKa of a given proton pump inhibitor plus about 0.7.
SRF is calculated based on the desirable shelf-life (or a dwell time), the environmental pH and the amount of acid expected to be encountered, along with a knowledge of the time of exposure expected after the drug is administered and before the drug reaches the blood (i.e., the dwell time).
The upper limit of the SRF is a function of the tolerability of the gastrointestinal mucosa to alkaline substances, which is determined by the Formulation pH and the concentration of alkaline material presented. […] It is acknowledged that the amount of buffer is an important aspect of the tissue destructive potential of an alkaline substance.
Examples of pHE calculations with SRF for specific proton pump inhibiting agents are as follows:
pHE of proton pump inhibitor=pKa of proton pump inhibitor+0.7.

[4] = acidic stomach / gastric environment (pH of 1.2 where stated), upon complete dissolution; cited from earlier work
[5] = cited from earlier work
[6] = system: gastric pH; assay: Example IX: gastric pH of nasogastric aspirate (pH paper) in mechanically ventilated critically ill patients; type: in vivo, human; details: mean ± standard deviation where given
Description: Each dose was administered through the nasogastric tube.
Gastric pH was measured immediately after aspirating gastric contents through the nasogastric tube. pH paper (pHydrion improved pH papers, Microessential Laboratory, Brooklyn, N.Y.) was used to measure gastric aspirate pH. The pH range of the test strips was 1 to 11, in increments of one pH unit. Gastric pH was measured before the initiation of omeprazole solution therapy, immediately before each dose, and every four hours between doses.

[7] = clinical; details: human, plasma, 40 mg
[8] = clinical; details: human, plasma, oral, 40 mg
[9] = system: gastric pH; assay: Example XIV: continuous gastric pH monitoring (Zinetics probe) after omeprazole suspension; details: from 1 h after administration for the entire 24-h study period; both routes
[10] = Example XV: omeprazole concentration vs time after single dose SOS in patients at risk for SRMD (HPLC); details: single dose SOS 40 mg
[11] = system: stress-related mucosal bleeding; assay: Example IX: clinically significant stress-related mucosal bleeding, mortality, pneumonia and adverse events in mechanically ventilated critically ill patients

Compound	pH [1]	Solubility [1]	pH [2]	other results
C[C@H](N)C(=O)O [Alanine]	6	16.65 g/100 g H2O		
N=C(N)NCCC[C@H](N)C(=O)O [Arginine]	11.15			
NC(=O)C[C@H](N)C(=O)O [Asparagine]	5.41	3.53 g/100 g H2O		
N[C@@H](CC(=O)O)C(=O)O [Aspartic Acid]	2.77			
O=C([O-])CC(O)(CC(=O)[O-])C(=O)[O-].O=C([O-])CC(O)(CC(=O)[O-])C(=O)[O-].[Ca+2].[Ca+2].[Ca+2] [Calcium citrate]			6.8	
CC(O)C(=O)[O-].CC(O)C(=O)[O-].[Ca+2] (centres unmarked) [Calcium lactate]			7	
N[C@@H](CS)C(=O)O [Cysteine]	5.02	Very		
O=P([O-])([O-])O.[Na+].[Na+] [Dibasic sodium phosphate]			8.6-9.3	
N[C@@H](CCC(=O)O)C(=O)O [Glutamic Acid]	3.22			
NC(=O)CC[C@H](N)C(=O)O [Glutamine]		2.5 g/100 g H2O		
NCC(=O)O [Glycine]	5.97			
N[C@@H](Cc1c[nH]cn1)C(=O)O [Histidine]	7.47	4.19 g/100 g H2O		
CC[C@H](C)[C@H](N)C(=O)O [Isoleucine]	5.94	4.117 g/100 g H2O		
Cc1c(OCC(F)(F)F)ccnc1C[S+]([O-])c1nc2ccccc2[nH]1 (centres unmarked) [Lansoprazole, lansoprazole]				Stability Range Factor (pH range) [3]: 4.8 to 10.9; time in which drug could undergo 50% degradation [4]: 2 min; Solubility in water [5]: very slightly; pKa [5]: Lansoprazole has a pKa of 4.1; thus, the Essential pH = 4.1 + 0.7 ≧ 4.8; Solubility in water ([5]; listed as Lansoprazole base): very slightly soluble in water
CC(C)C[C@H](N)C(=O)O [Leucine]		2.426 g/100 g H2O		
NCCCC[C@H](N)C(=O)O [Lysine]	9.59	Very		
CC(O)C(=O)[O-].CC(O)C(=O)[O-].[Mg+2] (centres unmarked) [Magnesium lactate]			5.5-7.5	
[O]=[Mg] [Magnesium oxide]			9.5-10.5	Solubility [2]: 0.62 mg/100 mL
CSCC[C@H](N)C(=O)O [Methionine]	5.74	3.381 g/100 g H2O		
COc1ccc2[nH]c([S+]([O-])Cc3ncc(C)c(OC)c3C)nc2c1 (centres unmarked) [Omeprazole]				gastric pH four hours after omeprazole was first administered (mean) ([6]; 40 mg omeprazole solution per ng tube): 7.1 and 7.1±1.1; lowest gastric pH after starting omeprazole (mean) [6]: 5.6 and 5.6±1.3; mean gastric pH after starting omeprazole (mean) [6]: 6.8 and 6.8±0.6; Stability Range Factor (pH range) [3]: 4.6 to 10.9; time in which drug could undergo 50% degradation [4]: less than 3 minutes; Solubility in water [5]: slightly soluble; pKa [5]: Omeprazole has a pKa of 3.9; thus, the Essential pH = 3.9 + 0.7 ≧ 4.6; Solubility in water ([5]; listed as Omeprazole base): only slightly soluble in water; concentration at 3 min [7]: 27.5 ng/mL; concentration at 5 min [7]: 73.5 ng/mL; concentration at 8 h [7]: 232 ng/mL; concentration at 75 min ([7]; oral): 610 ng/mL; concentration at 0 h [8]: 0 ng/mL; mean intragastric pH values [9]: > 4; absorption as measured by Area Under the Curve (AUC) compared to enteric-coated form [10]: did not appear to be significantly decreased; adverse event or drug interaction attributable to omeprazole ([11]; high-risk population): No patient; also recorded: No adverse events or drug interaction; incidence of pneumonia ([11]; nine of 75 patients): twelve

Compound	pH [1]	Solubility [1]	pH [2]	other results
COc1ccnc(C[S+]([O-])c2nc3ccc(OC(F)F)cc3[nH]2)c1OC (centres unmarked) [Pantoprazole sodium]				time in which drug could undergo 50% degradation [4]: less than 5 minutes; Solubility in water [5]: very soluble; pKa [5]: 3; Solubility in water ([5]; listed as pantoprazole sodium): very soluble in water
N[C@@H](Cc1ccccc1)C(=O)O [Phenylalanine]	5.48	2.965 g/100 g H2O		
O=C(O)[C@@H]1CCCN1 [Proline]	6.30			
COCCCOc1ccnc(C[S+]([O-])c2nc3ccccc3[nH]2)c1C (centres unmarked) [Rabeprazole sodium]				time in which drug could undergo 50% degradation [4]: less than 1.5 minutes; Solubility in water [5]: very soluble in water; pKa [5]: 4.9
N[C@@H](CO)C(=O)O [Serine]	5.68			
O=C([O-])CC(O)(CC(=O)[O-])C(=O)[O-].[Na+].[Na+].[Na+] [Sodium citrate]			5	
O=C([O-])[C@H](O)[C@@H](O)[C@H](O)[C@H](O)CO.[Na+] [Sodium gluconate]			6-8	
CC(O)C(=O)[O-].[Na+] (centres unmarked) [Sodium lactate]			7	
O=P([O-])([O-])[O-].[Na+].[Na+].[Na+] [Sodium phosphate (tribasic)]			10.7-12.1	
O=P(O)(O)OP(=O)(O)OP(=O)(O)O [Sodium tripolyphosphate]			9.7-10	Solubility [2]: 6 gm/100 mL
C[C@@H](O)[C@H](N)C(=O)O [Threonine]	5.64			
N[C@@H](Cc1c[nH]c2ccccc12)C(=O)O [Tryptophan]	5.89	1.136 g/100 g H2O		
N[C@@H](Cc1ccc(O)cc1)C(=O)O [Tyrosine]	5.66			
CC(C)[C@H](N)C(=O)O [Valine]	5.96	8.85 g/100 g H2O		
COc1ccc2nc([S@@+]([O-])Cc3ncc(C)c(OC)c3C)[nH]c2c1 [esomeprazole]				pKa [5]: Essential pH (esomeprazole pKa = 3.9 + 0.7 ≧ 4.6)
COc1ccnc(C[S+]([O-])c2nc3ccc(OC(F)F)cc3[nH]2)c1OC (centres unmarked) [pantoprazole]				Stability Range Factor (pH range) [3]: 3.7 to 10.9
COCCCOc1ccnc(C[S+]([O-])c2nc3ccccc3[nH]2)c1C (centres unmarked) [rabeprazole]				Stability Range Factor (pH range) [3]: 5.6 to 10.9
Calcium gluconate			7.4	
Calcium glycerophosphate			7	
Magnesium gluconate			7.3	
